Values joined by “and” are separate entries in the source; they are usually repeats but may differ in a detail not shown here. Identical values can stand only once.
How the values were obtained:
LN95 cells = assay: Cell cycle analysis by flow cytometry, LN95; details: LN95, ATRA 5 and 10 μM, EPI-002 25 μM, 24 or 48 h
Description: After treatments, the cells were labeled with BrdU (10 μM) for 2 h and then trypsinized, washed, and fixed in 70% EtOH/PBS at −20 °C. Approximately 2.5–5.0 × 10^5 of fixed cells were labeled with fluorescein (FITC)-conjugated anti-BrdU antibody (B44; BD Biosciences) and the DNA content was stained with 7-AAD (Sigma). The data were collected with a BD FACSCalibur flow cytometer (BD Biosciences). FITC and 7-AAD fluorescence were detected in the FL1 and FL3 channels, respectively, using CellQuest Pro and analyzed by FlowJo V10 software (Ashland, Oregon). Pre-gating was performed on all samples by plotting FL3-W × FL3-H to exclude doublets from the analysis.

[1] = Body weight and tolerability in the xenograft study; type: in vivo, mice; details: ATRA 5mg

CC1=C(/C=C/C(C)=C/C=C/C(C)=C/C(=O)O)C(C)(C)CCC1 [ATRA, all-trans retinoic acid]
effect on cell cycle / S phase population (LN95 cells): reduced the S phase population in a dose- and time-dependent manner
Body weight, individual animals (Fig. 7c) ([1]; treatment duration 0 days): 26.7 and 29.9 and 28.1 and 28.2 and 29.3 and 28.3 and 30.2 (2×)
Body weight, individual animals (Fig. 7c) ([1]; treatment duration 1 days, in g (unit assumed)): 26.8 and 30.1 and 28.1 and 27.9 and 29.3 and 28.7 and 29 and 29.8
Body weight, individual animals (Fig. 7c) ([1]; treatment duration 2 days): 26.7 and 29.8 and 27.6 (2×) and 28.9 and 28.8 and 29.1 and 29.4
Body weight, individual animals (Fig. 7c) ([1]; treatment duration 3 days): 25.9 and 29 and 25.6 and 26.8 and 28.1 and 28.3 (2×) and 28.9
Body weight, individual animals (Fig. 7c) ([1]; treatment duration 4 days, in g (unit assumed)): 25.2 and 28.9 and 27 and 27.1 and 29.1 and 28.5 and 27.5 and 28.7
Body weight, individual animals (Fig. 7c) ([1]; treatment duration 5 days, in g (unit assumed)): 23.9 and 28.3 and 26.5 and 27 and 28.5 and 28.2 and 26.8 and 27.8
Body weight, individual animals (Fig. 7c) ([1]; treatment duration 6 days, in g (unit assumed)): 23.9 and 27.9 and 26.1 and 26.5 and 28.2 and 27.4 and 26.8 and 28
Body weight, individual animals (Fig. 7c) ([1]; treatment duration 7 days): 23.9 and 27.5 (2×) and 25.7 and 26.4 and 28.1 and 26.9 and 27.6
Body weight, individual animals (Fig. 7c) ([1]; treatment duration 8 days, in g (unit assumed)): 23.1 and 27.9 and 25.6 and 26.6 and 28.2 and 27.4 and 25.9 and 27.6
Body weight, individual animals (Fig. 7c) ([1]; treatment duration 9 days): 22.3 and 27.6 and 25.3 (2×) and 26.2 and 28.4 and 27.3 and 27.7
Body weight, individual animals (Fig. 7c) ([1]; treatment duration 10 days): 22.1 and 28.3 and 24.9 and 26.3 (2×) and 27.9 and 25.2 and 27.4
Body weight, individual animals (Fig. 7c) ([1]; treatment duration 11 days, in g (unit assumed)): 22 and 28 and 24.2 and 26 and 27.8 and 25.3 and 24.7 and 27.2
Body weight, individual animals (Fig. 7c) ([1]; treatment duration 12 days, in g (unit assumed)): 21.9 and 27.9 and 24.6 and 26.1
